# Measurements published in ChEMBL document CHEMBL4406807, “Discovery of 3,4,6-Trisubstituted Piperidine Derivatives as Orally Active, Low hERG Blocking Akt Inhibitors via Conformational Restriction and Structure-Based Design” (J Med Chem, 2019).
# How the values were obtained:
# [1] = target: RAC-alpha serine/threonine-protein kinase (Homo sapiens, UniProt P31749)
# Description: Inhibition of human Akt1 expressed in Escherichia coli using STK Substrate 2-biotin as substrate incubated for 1 hr by HTRF assay
# HCT-116 = assay: cells; conditions: Homo sapiens, HCT-116, 72 h
# OVCAR-8 = assay: Antiproliferative activity against human OVCAR8 cells; format: functional, cell-based
# LNCaP = assay: Antiproliferative activity against human LNCAP cells; format: functional, cell-based
# Sequence of RAC-alpha serine/threonine-protein kinase (P31749 whole entry): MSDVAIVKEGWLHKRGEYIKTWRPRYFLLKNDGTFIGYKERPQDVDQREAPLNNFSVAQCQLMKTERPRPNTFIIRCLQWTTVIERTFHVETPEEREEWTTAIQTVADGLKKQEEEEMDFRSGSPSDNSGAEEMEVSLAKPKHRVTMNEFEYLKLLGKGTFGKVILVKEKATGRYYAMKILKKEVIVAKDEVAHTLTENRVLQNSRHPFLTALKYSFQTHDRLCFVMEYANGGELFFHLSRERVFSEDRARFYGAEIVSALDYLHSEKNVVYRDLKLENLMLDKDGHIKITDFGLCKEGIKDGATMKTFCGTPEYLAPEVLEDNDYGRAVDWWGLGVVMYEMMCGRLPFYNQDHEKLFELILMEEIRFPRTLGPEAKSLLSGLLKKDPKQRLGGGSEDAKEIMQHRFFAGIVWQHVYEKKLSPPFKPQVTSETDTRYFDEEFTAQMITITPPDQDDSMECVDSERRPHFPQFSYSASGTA
Compound,IC50 [1],IC50 (HCT-116),IC50 (OVCAR-8),IC50 (LNCaP)
Cn1ncc(Cl)c1-c1cc(C(=O)N[C@@H]2CNCC[C@@H]2c2ccc(F)c(F)c2)oc1Cl,0.0025 µM,,,
CC(=O)OCC[C@@H]1C[C@@H](c2ccc(F)c(F)c2)[C@H](NC(=O)c2cc(-c3c(Cl)cnn3C)c(Cl)o2)CN1,0.0034 µM,0.69 µM,4.96 µM,
Cn1ncc(Cl)c1-c1cc(C(=O)N[C@@H]2CNCC[C@H]2c2ccc(Cl)c(C(F)(F)F)c2)sc1Cl,0.322 µM,1.75 µM,1.15 µM,
Cn1ncc(Br)c1-c1oc(C(=O)N[C@@H]2CNCC[C@H]2c2ccc(Cl)cc2)cc1Br,0.0298 µM,10.8 µM,4.54 µM,
Cn1ncc(Br)c1-c1ccc(C(=O)N[C@@H]2CNCC[C@H]2c2ccc(Cl)cc2)o1,0.0312 µM,3.76 µM,3.68 µM,
Cn1ncc(Cl)c1-c1cc(C(=O)NC2CNCCC2c2ccc(F)c(F)c2)oc1Cl (racemic),0.0064 µM,,,
Cn1ncc(Cl)c1-c1cc(C(=O)N[C@@H]2CN[C@H](CC(=O)NCC(O)CO)C[C@H]2c2ccc(Cl)c(Cl)c2)oc1Cl (stereo not given in full),0.00313 µM,7.09 µM,5.9 µM,0.66 µM
Cn1ncc(Br)c1-c1ccc(C(=O)N[C@@H]2CNCC[C@H]2c2cccc(F)c2)nc1,0.182 µM,6.25 µM,1.92 µM,
CNc1cc(-c2ccc(C(=O)N[C@@H]3CNCC[C@H]3c3ccc(Cl)cc3)o2)ncn1,0.529 µM,37.1 µM,12.3 µM,
Cn1ncc(Br)c1-c1cc(C(=O)N[C@@H]2CNCC[C@H]2c2ccc(Cl)cc2)n(C)c1Br,0.199 µM,7.42 µM,4.92 µM,
Cn1nccc1-c1coc(C(=O)N[C@@H]2CNCC[C@H]2c2ccc(Cl)cc2)c1,0.0294 µM,1.56 µM,3.5 µM,
Cn1ncc(Cl)c1-c1ccc(C(=O)N[C@@H]2CNCC[C@H]2c2ccc(F)c(F)c2)cn1,0.215 µM,34.7 µM,6.12 µM,
NC1(C(=O)N[C@@H](CCO)c2ccc(Cl)cc2)CCN(c2nc[nH]c3nccc2-3)CC1 [CAPIVASERTIB],,5.2 µM,,0.178 µM
Cn1nccc1-c1oc(C(=O)N[C@@H]2CNCC[C@H]2c2ccc(Cl)cc2)cc1Br,0.163 µM,13.7 µM,15 µM,
Cn1nccc1-c1ccc(C(=O)N[C@@H]2CNCC[C@H]2c2cccc(F)c2)nc1,0.0766 µM,5.63 µM,7.4 µM,
Cn1nccc1-c1ccc(C(=O)N[C@@H]2CNCC[C@H]2c2ccc(F)c(F)c2)cn1,0.0577 µM,24.2 µM,2.11 µM,
COCC[C@@H]1C[C@@H](c2ccc(Cl)c(Cl)c2)[C@H](NC(=O)c2cc(-c3c(Cl)cnn3C)c(Cl)o2)CN1,0.00701 µM,0.47 µM,1.06 µM,0.25 µM
Cn1ncc(Cl)c1-c1ccc(C(=O)N[C@@H]2CNCC[C@H]2c2ccc(F)c(F)c2)cc1,0.0273 µM,9.88 µM,2.18 µM,
Cn1ncc(Cl)c1-c1cc(C(=O)N[C@H]2CNCC[C@@H]2c2ccc(C(F)(F)F)cc2)oc1Cl,0.127 µM,1.05 µM,0.9 µM,
Cn1ncc(Cl)c1-c1cc(C(=O)NC2CNCC2c2ccc(C(F)(F)F)cc2)oc1Cl (stereo not given),0.538 µM,,,
Cn1ncc(Cl)c1-c1cc(C(=O)N[C@@H]2CN[C@H](CC(=O)NC3CCC3)C[C@H]2c2ccc(Cl)c(Cl)c2)oc1Cl,0.00798 µM,0.43 µM,0.61 µM,0.08 µM
Cn1ncc(Cl)c1-c1cc(C(=O)N[C@@H]2CNCC[C@H]2c2ccc(C(F)(F)F)cc2)oc1Cl,0.0093 µM,0.28 µM,0.12 µM,
Cn1nccc1-c1coc(C(=O)NC2CNCCC2c2ccc(F)c(F)c2)c1 (racemic),0.191 µM,,,
Cn1cc(-c2c(Cl)cnn2C)cc1C(=O)N[C@@H]1CNCC[C@H]1c1ccc(Cl)cc1,0.212 µM,3.04 µM,6.2 µM,
O=C(N[C@@H]1CNCC[C@H]1c1ccc(Cl)cc1)c1ccc(-c2cn[nH]c2)o1,0.0503 µM,21.8 µM,5 µM,
Cn1ncc(Cl)c1-c1cc(C(=O)NC2CNCCC2c2ccccc2)oc1Cl (stereo not given),0.0176 µM,,,

Compound,IC50 [1],IC50 (HCT-116),IC50 (OVCAR-8),IC50 (LNCaP)
Cn1ncc(Cl)c1-c1oc(C(=O)N[C@@H]2CNCC[C@H]2c2ccc(Cl)cc2)cc1Br,0.04 µM,11.7 µM,6.05 µM,
Cn1ncc(Cl)c1-c1cc(C(=O)N[C@@H]2CNCC[C@H]2c2cccc(F)c2)sc1Cl,0.102 µM,9.43 µM,8.99 µM,
Cn1ncc(Br)c1-c1ccc(C(=O)N[C@@H]2CNCC[C@H]2c2ccc(F)c(F)c2)cc1,0.0735 µM,22.2 µM,2.9 µM,
Cn1ncc(Cl)c1-c1cc(C(=O)N[C@@H]2CNCC[C@H]2c2cccc(C(F)(F)F)c2)oc1Cl,0.008 µM,0.39 µM,0.12 µM,
Cn1ncc(Cl)c1-c1cc(C(=O)N[C@@H]2CN[C@H](CCN3CCCC3)C[C@H]2c2ccc(Cl)c(Cl)c2)oc1Cl,0.00641 µM,1.94 µM,1.84 µM,1.92 µM
Cn1ncc(Cl)c1-c1cc(C(=O)NC2CNCCC2c2ccc(C(F)(F)F)cc2)oc1Cl (stereo not given),0.0072 µM,,,
Cn1ncc(Cl)c1-c1coc(C(=O)N[C@@H]2CNCC[C@H]2c2ccc(F)c(F)c2)c1,0.0051 µM,0.99 µM,1.4 µM,
Cn1nccc1-c1coc(C(=O)NC2CNCCC2c2ccccc2)c1 (stereo not given),0.71 µM,,,
Cn1ncc(Br)c1-c1ccc(C(=O)N[C@@H]2CNCC[C@H]2c2ccc(F)c(F)c2)cn1,0.27 µM,26.9 µM,6.15 µM,
Cn1ncc(Cl)c1-c1cc(C(=O)N[C@@H]2CNCC[C@H]2c2ccc(Cl)cc2)n(C)c1Cl,0.149 µM,7.33 µM,12.4 µM,
Cn1ncc(Cl)c1-c1cc(C(=O)N[C@@H]2CNCC[C@H]2c2ccc(F)c(F)c2)sc1Cl,0.222 µM,2.81 µM,3.51 µM,
Cn1ncc(Cl)c1-c1coc(C(=O)NC2CNCC2c2ccc(F)c(F)c2)c1 (racemic),1.57 µM,,,
Cn1ncc(Cl)c1-c1ccc(C(=O)N[C@@H]2CNCC[C@H]2c2ccc(Cl)cc2)o1,0.0137 µM,2.56 µM,4.28 µM,
C=CC[C@@H]1C[C@@H](c2ccc(Cl)c(Cl)c2)[C@H](NC(=O)c2cc(-c3c(Cl)cnn3C)c(Cl)o2)CN1,0.0124 µM,0.78 µM,0.99 µM,0.16 µM
Cn1ncc(Br)c1-c1coc(C(=O)N[C@@H]2CNCC[C@H]2c2ccc(Cl)cc2)c1,0.0356 µM,2.31 µM,9.01 µM,
Cn1ncc(Cl)c1-c1ccc(C(=O)N[C@@H]2CNCC[C@H]2c2cccc(F)c2)nc1,0.104 µM,4.72 µM,3.46 µM,
Cn1ncc(Br)c1-c1coc(C(=O)NC2CNCC2c2ccc(F)c(F)c2)c1 (racemic),3.65 µM,,,
O=C(N[C@@H]1CNCC[C@H]1c1ccc(Cl)cc1)c1ccc(-c2ncnc3c2CCC3O)s1 (stereo not given in full),> 1 µM,23 µM,24.1 µM,
Cn1cc(-c2coc(C(=O)N[C@@H]3CNCC[C@H]3c3ccc(Cl)cc3)c2)cn1,> 1 µM,23.7 µM,10 µM,
Cn1ncc(Cl)c1-c1cc(C(=O)NC2CNCCC2c2ccc(Cl)cc2)oc1Cl (stereo not given),0.0173 µM,,,
Cn1nccc1-c1csc(C(=O)N[C@@H]2CNCC[C@H]2c2ccc(Cl)cc2)c1,0.188 µM,8.51 µM,12.6 µM,
Cn1ncc(Cl)c1-c1cc(C(=O)N[C@@H]2CNCC[C@H]2c2ccc(Cl)cc2)oc1Cl,0.0173 µM,1.87 µM,1.32 µM,
Cn1ncc(Cl)c1-c1cc(C(=O)N[C@@H]2CNCC[C@H]2c2ccc(Cl)cc2)sc1Cl,0.449 µM,2.44 µM,2.51 µM,
Cn1nccc1-c1ccc(C(=O)N[C@@H]2CNCC[C@H]2c2ccc(Cl)cc2)o1,0.23 µM,9.56 µM,6.09 µM,
Cn1ncc(Cl)c1-c1cc(C(=O)N[C@H]2CNCC[C@@H]2c2ccc(F)c(F)c2)oc1Cl,0.0512 µM,1.09 µM,0.49 µM,
Cn1cc(-c2ccc(C(=O)N[C@@H]3CNCC[C@H]3c3ccc(Cl)cc3)o2)cn1,> 1 µM,15.1 µM,4.41 µM,
